# Source: ChEMBL document CHEMBL5705903, “A DNA Hypomethylation Signature Predicts Antitumor Activity of LSD1 Inhibitors in SCLC” (Cancer Cell, 2015)
# Activity calls are given as the source filed them. The rule behind the calls is not given here.
# How the values were obtained:
# [1] = Dose normalized AUC (0 to last) in mouse blood at 5 mg/kg, po by HPLC/MS/MS analysis; type: ADME, organism-based; conditions: in vivo
# NCI-H1417 = test: Cell growth inhibition of human NCI-H1417 cells measured upto 10 days; type: functional, cell-based; conditions: time <= 10.0 day
# [2] = Effect on cleaved PARP level in human NCI-H1417 cells assessed as relative expression at 1000 nM measured after 14 days by Western blot analysis (reference value: 0.38); type: functional; conditions: time 14 day
# [3] = Effect on cleaved PARP level in human NCI-H1417 cells assessed as fold change at 1000 nM measured after 10 days by Western blot analysis (reference value: 1.00); type: functional; conditions: time 10 day
# [4] = Effect on cleaved PARP level in human NCI-H526 cells assessed as relative expression at 10 nM measured after 10 days by Western blot analysis (reference value: 0.81); type: functional; conditions: time 10 day
# [5] = Effect on cleaved PARP level in human NCI-H524 cells assessed as relative expression at 10 nM measured after 10 days by Western blot analysis (reference value: 0.95); type: functional; conditions: time 10 day
# [6] = Effect on cleaved PARP level in human NCI-H524 cells assessed as relative expression at 100 nM measured after 10 days by Western blot analysis (reference value: 0.95); type: functional; conditions: time 10 day
# [7] = Effect on cleaved PARP level in human NCI-H524 cells assessed as relative expression at 1000 nM measured after 10 days by Western blot analysis (reference value: 0.95); type: functional; conditions: time 10 day
# [8] = Effect on cleaved PARP level in human NCI-H524 cells assessed as relative expression at 10 nM measured after 14 days by Western blot analysis (reference value: […]); type: functional; conditions: time 14 day
# [9] = Effect on cleaved PARP level in human NCI-H524 cells assessed as fold change at 1000 nM measured after 10 days by Western blot analysis (reference value: 1.00); type: functional; conditions: time 10 day
# [10] = Effect on cleaved PARP level in human NCI-H1694 cells assessed as fold change at 1000 nM measured after 7 days by Western blot analysis (reference value: 1.00); type: functional; conditions: time 7 day
# [11] = Effect on cleaved PARP level in human NCI-H1694 cells assessed as fold change at 100 nM measured after 10 days by Western blot analysis (reference value: 1.00); type: functional; conditions: time 10 day
# [12] = Effect on cleaved PARP level in human NCI-H69 cells assessed as fold change at 1000 nM measured after 7 days by Western blot analysis (reference value: 1.00); type: functional; conditions: time 7 day
# [13] = Effect on cleaved PARP level in human NCI-H69 cells assessed as fold change at 10 nM measured after 14 days by Western blot analysis (reference value: 1.00); type: functional; conditions: time 14 day
# [14] = Effect on cleaved PARP level in human NCI-H69 cells assessed as fold change at 100 nM measured after 14 days by Western blot analysis (reference value: 1.00); type: functional; conditions: time 14 day
# [15] = Effect on cleaved PARP level in human NCI-H510 cells assessed as relative expression at 10 nM measured after 10 days by Western blot analysis (reference value: 0.02); type: functional, NCI-H510A; conditions: time 10 day
# [16] = Effect on cleaved PARP level in human NCI-H510 cells assessed as relative expression at 100 nM measured after 10 days by Western blot analysis (reference value: 0.02); type: functional, NCI-H510A; conditions: time 10 day
# [17] = Effect on cleaved PARP level in human NCI-H889 cells assessed as relative expression at 1000 nM measured after 14 days by Western blot analysis (reference value: 0.94); type: functional; conditions: time 14 day
# [18] = Effect on cleaved PARP level in human NCI-H889 cells assessed as fold change at 1000 nM measured after 14 days by Western blot analysis (reference value: 1.00); type: functional; conditions: time 14 day
# [19] = Effect on cleaved PARP level in human NCI-H2171 cells assessed as relative expression at 100 nM measured after 7 days by Western blot analysis (reference value: 0.02); type: functional; conditions: time 7 day
# [20] = Effect on cleaved PARP level in human NCI-H2171 cells assessed as fold change at 100 nM measured after 10 days by Western blot analysis (reference value: 1.00); type: functional; conditions: time 10 day
# [21] = Toxicity in rat assessed as multifocal hemorrhage in organs measured for 28 days; conditions: in vivo, 672 h, time 28 day
# [22] = Toxicity in dog assessed as suppression of erythroid maturation in bone marrow measured for 28 days; set-up: species or system Canis lupus familiaris; conditions: in vivo, 672 h, time 28 day
# [23] = Toxicity in dog assessed as neutrophenia measured for 28 days; set-up: species or system Canis lupus familiaris; conditions: in vivo, 672 h, time 28 day
# [24] = Toxicity in dog assessed as multifocal hemorrhage in organs measured for 28 days; set-up: species or system Canis lupus familiaris; conditions: in vivo, 672 h, time 28 day
# SHP77 [25] = test: Antitumor activity against human SHP77 cells xenografted in nude mouse assessed as mean tumor volume at […] mg/kg, po administered daily measured twice weekly (reference value: 2193 +/- 293 mm3); type: functional; conditions: 1.25 mg/kg
# SHP77 [26] = test: Antitumor activity against human SHP77 cells xenografted in nude mouse assessed as tumor growth inhibition at […] mg/kg, po administered daily measured twice weekly relative to control; type: functional; conditions: read-out: TGI
# NCI-H446 [27] = test: Effect on NSE gene expression in human NCI-H446 cells at 1 uM measured after 4 to 7 days by qRT-PCR analysis; type: functional, cell-based; conditions: time 4-7 day
# NCI-H446 [28] = test: Effect on SYP gene expression in human NCI-H446 cells at 1 uM measured after 4 days by qRT-PCR analysis; type: functional, cell-based; conditions: time 4.0 day
# NCI-H526 [29] = test: In vivo inhibition of LSD1 in human NCI-H526 cells xenografted in nude mouse assessed as change in FEZ1 gene expression measured after 24 hrs post single administration by qRT-PCR analysis; type: functional, organism-based; conditions: dose 0.06-135 mg/kg
# NCI-H526 [30] = test: In vivo inhibition of LSD1 in human NCI-H526 cells xenografted in nude mouse assessed as change in UMODL1 gene expression administrated daily for 5 days by qRT-PCR analysis; type: functional, organism-based; conditions: dose 0.02-135 mg/kg, time 5.0 day
# NCI-H526 [31] = test: In vivo inhibition of LSD1 in human NCI-H526 cells xenografted in nude mouse assessed as change in KIAA1644 gene expression administrated daily for 5 days by qRT-PCR analysis; type: functional, organism-based; conditions: dose 0.02-135 mg/kg, time 5.0 day
# NCI-H526 [32] = test: In vivo inhibition of LSD1 in human NCI-H526 cells xenografted in nude mouse assessed as change in ANXA6 gene expression administrated daily for 5 days by qRT-PCR analysis; type: functional, organism-based; conditions: dose 0.02-135 mg/kg, time 5.0 day
# [33] = Antitumor activity against human PDX L36 cells xenografted in mouse assessed as tumor growth inhibition at 1.5 mg/kg administered daily measured for 20 days relative to control; type: functional; conditions: PDX LX36, 480 h, time 20 day, read-out: TGI
# [34] = Antitumor activity against human PDX L48 cells xenografted in mouse assessed as tumor growth inhibition at 1.5 mg/kg administered daily measured for 16 days relative to control; type: functional; conditions: PDX LX48, 384 h, time 16 day, read-out: TGI
# [35] = target: 3',5'-cyclic-AMP phosphodiesterase 4B (Homo sapiens, UniProt Q07343); test: Inhibition of PDE4B (unknown origin)
# [36] = Tmax in mouse at 5.5 mg/kg, ip by HPLC/MS/MS analysis; type: ADME, organism-based; conditions: in vivo
# Sequence of 3',5'-cyclic-AMP phosphodiesterase 4B (Q07343 whole entry): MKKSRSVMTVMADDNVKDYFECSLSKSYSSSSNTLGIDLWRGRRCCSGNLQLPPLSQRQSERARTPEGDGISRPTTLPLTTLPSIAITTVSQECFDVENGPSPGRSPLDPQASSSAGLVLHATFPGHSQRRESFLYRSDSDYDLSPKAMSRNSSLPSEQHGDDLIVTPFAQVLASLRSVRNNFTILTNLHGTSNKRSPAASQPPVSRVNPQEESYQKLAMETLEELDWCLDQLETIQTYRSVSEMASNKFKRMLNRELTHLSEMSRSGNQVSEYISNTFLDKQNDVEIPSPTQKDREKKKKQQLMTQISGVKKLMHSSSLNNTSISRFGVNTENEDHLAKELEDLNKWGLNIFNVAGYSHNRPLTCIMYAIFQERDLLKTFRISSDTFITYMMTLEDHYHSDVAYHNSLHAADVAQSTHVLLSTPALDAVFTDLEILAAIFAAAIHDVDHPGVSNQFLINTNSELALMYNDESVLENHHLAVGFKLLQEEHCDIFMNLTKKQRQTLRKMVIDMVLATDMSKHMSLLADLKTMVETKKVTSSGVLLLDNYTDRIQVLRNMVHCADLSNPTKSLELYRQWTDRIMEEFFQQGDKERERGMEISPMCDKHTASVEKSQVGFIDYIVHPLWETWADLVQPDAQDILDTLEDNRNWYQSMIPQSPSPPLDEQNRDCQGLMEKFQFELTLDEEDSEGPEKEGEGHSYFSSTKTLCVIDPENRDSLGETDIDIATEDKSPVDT
compound,measurement,setting,value
O=C(O)c1ccc(CN2CCC(CN[C@@H]3C[C@H]3c3ccccc3)CC2)cc1 [GSK2879552],AUClast/dose,[1],171 ng·h/mL/mg/kg
same,growth inhibition (GI),NCI-H1417,Dose-Dependent Effect
same,Activity,[2],0.42
same,fold change (FC),[3],2.12
same,Activity,[4],0.46
same,Activity,[5],0.77
same,Activity,[6],0.67
same,Activity,[7],0.79
same,Activity,[8],1.2
same,fold change (FC),[9],0.83
same,fold change (FC),[10],1.44
same,fold change (FC),[11],0.75
same,fold change (FC),[12],2.21
same,fold change (FC),[13],1.66
same,fold change (FC),[14],5.03
same,Activity,[15],0.08
same,Activity,[16],0.18
same,Activity,[17],2.65
same,fold change (FC),[18],2.82
same,Activity,[19],0.03
same,fold change (FC),[20],1.2
same,Activity,[21],Toxic
same,Activity,[22],Toxic
same,Activity,[23],Toxic
same,Activity,[24],Toxic
same,Activity,SHP77 [25],1845 mm3
same,inhibition in vivo at 1.25 mg/kg,SHP77 [26],17%
same,Activity,NCI-H446 [27],inactive
same,Activity,NCI-H446 [28],inactive
same,inhibition,NCI-H526 [29],Dose-Dependent Effect
same,inhibition,NCI-H526 [30],Dose-Dependent Effect
same,inhibition,NCI-H526 [31],Dose-Dependent Effect
same,inhibition,NCI-H526 [32],Dose-Dependent Effect
same,inhibition in vivo at 1.5 mg/kg,[33],19%
same,inhibition in vivo at 1.5 mg/kg,[34],74%
c1ccc([C@@H]2C[C@H]2NC2CCNCC2)cc1,IC50,[35],> 100 µM
same,Tmax,[36],18 min
